Assay results from patent publication US12558333B2, “Agent for ameliorating and/or preventing sickle cell disease” (The University of Tokyo, priority 2019, dated 2026).
Where a name gives a salt, the structure may show the parent alone.

Key:
[1] = system: red blood cells collected from SCD homo mice; test: Sickling by hypoxia exposure of cultured red blood cells collected from SCD homo mice; assay type: cell-based, mouse; settings: then 4% O2 for 1.5 hours
Source text: SCD model mice aged 8 to 20 weeks were used. In the mice, a human HBA gene and a human HBB gene are knocked in a mouse HBA gene locus and a mouse HBB gene locus, respectively, and a gene mutation (β^s mutation) causing amino acid substitution (Val6Glu) causing SCD is introduced into the human HBB gene. Furthermore, a human HBG gene is introduced, and expression switching from post-natal γ-globin to β-globin is designed to occur as in humans. […] The SCD homo mouse was anesthetized with isoflurane, and 100 μl of blood was then collected from the vein behind the jawbone into an EDTA-2Na-coated blood sampling tube using an animal lamp set. The coagulation of the blood was prevented by lightly tapping the tube. The collected blood was transferred to a 1.5 ml tube, and centrifuged for 10 minutes under conditions of 3000 rpm and 4° C. After removing the supernatant, 1 ml of PBS was added to the precipitated red blood cells, followed by mixing by inversion, to wash the cells. The red blood cells obtained by repeating this washing operation again were diluted 200 times with a cell culture solution (RPMI 1640, 10% FBS, 1% Penicillin-Streptomycin-Fungizone Cocktail), and cultured under the conditions of 37° C., 5% CO2, and 21% O2. This red blood cell culture solution was used in the experiment within 5 days from the start of culture. […]

SCD homo mice = settings: normal oxygen concentration; 4 weeks; 5-ALA hydrochloride 50 mg/kg/day and/or SFC 3.9 mg/kg/day; vs physiological saline (FIG. 10); combination P<0.05
Method: All the prepared smear specimens were stained with May-Giemsa in the same manner as in Example 2, and the ratio of sickle cells to all red blood cells was measured. The rate of the sickle cells of the groups were compared with each other to examine the effect of the combination of 5-ALA hydrochloride and SFC on the rate of the in vivo sickle cells.

SCD homo mouse = test: Bleeding stress due to blood sampling in SCD model mice (blood LDH level); assay type: in vivo; settings: 50/3.9 mg/kg single administration after first blood sampling, blood sampling 2 after 3 hours, vs physiological saline
Method: Using the LDH levels in blood in the SCD model mice as an index, the effect of 5-ALA hydrochloride on bleeding stress due to blood sampling in the SCD patients was examined.
The LDH levels in the blood collected before and after the administration were measured, and the effect of the combination of 5-ALA hydrochloride and SFC on bleeding stress due to blood sampling was evaluated.

| Compound | red blood cells exhibiting a sickle form ([1]; 50 μM for 4 hours, SCD homo mouse No. 72, vs 0 μM (FIG. 1)) | sickling rate ([1]; 10, 25 and 50 μM for 4 hours, vs 0 μM (FIG. 2)) | rate of the in vivo sickle cells (SCD homo mice) | increase in the LDH level in blood after blood sampling (SCD homo mouse) |
| --- | --- | --- | --- | --- |
| NCC(=O)CCC(=O)O [5-ALA hydrochloride, 5-aminolevulinic acid] | remarkable decrease | concentration-dependent decrease | slightly decreases | markedly suppressed |
| sodium ferrous citrate [SFC] | – | – | little effect | – |
